# Test results taken from patent US20240270821A1, “GIP/GLP1/GCG TRI-RECEPTOR AGONISTS AND USES THEREOF” (priority 2023, published 2024).
# Like-named read-outs stand apart in the source and are kept apart here.
# What was measured:
# Type in all cases: cell-based
# hGLP-1R [1] = molecular target: T1, hGLP-1R (Homo sapiens, UniProt P43220); test: Functional cAMP activation in the presence of 0.1% casein (no HSA); settings: geometric mean, read-out: Relative cAMP EC50, hGLP-1R;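 further: intracellular cAMP rise after 30 min at 37 °C read by HTRF, normalized between buffer only (0%) and maximal control ligand (100%), four-parameter variable-slope fit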
# T1 sequence (P43220 24-463): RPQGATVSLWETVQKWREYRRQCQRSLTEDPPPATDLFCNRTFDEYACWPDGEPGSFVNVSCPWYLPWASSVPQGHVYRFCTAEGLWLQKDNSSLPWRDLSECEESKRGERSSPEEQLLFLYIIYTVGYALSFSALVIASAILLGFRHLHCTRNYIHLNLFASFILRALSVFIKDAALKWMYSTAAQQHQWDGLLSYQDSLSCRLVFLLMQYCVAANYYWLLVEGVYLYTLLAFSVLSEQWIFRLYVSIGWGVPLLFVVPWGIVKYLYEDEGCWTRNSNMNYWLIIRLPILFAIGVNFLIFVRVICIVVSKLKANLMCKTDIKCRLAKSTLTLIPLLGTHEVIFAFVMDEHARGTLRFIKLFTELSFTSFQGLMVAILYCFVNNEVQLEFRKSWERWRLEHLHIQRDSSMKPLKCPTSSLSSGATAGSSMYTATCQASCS
# hGIPR [2] = molecular target: T2, hGIPR (Homo sapiens, UniProt P48546); test: as above; settings: geometric mean, read-out: Relative cAMP EC50, hGIPR;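 further: intracellular cAMP rise after 30 min at 37 °C read by HTRF against a standard curve, scaled between buffer alone (0%) and top control ligand concentration (100%), four-parameter fit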
# T2 sequence (P48546 22-466): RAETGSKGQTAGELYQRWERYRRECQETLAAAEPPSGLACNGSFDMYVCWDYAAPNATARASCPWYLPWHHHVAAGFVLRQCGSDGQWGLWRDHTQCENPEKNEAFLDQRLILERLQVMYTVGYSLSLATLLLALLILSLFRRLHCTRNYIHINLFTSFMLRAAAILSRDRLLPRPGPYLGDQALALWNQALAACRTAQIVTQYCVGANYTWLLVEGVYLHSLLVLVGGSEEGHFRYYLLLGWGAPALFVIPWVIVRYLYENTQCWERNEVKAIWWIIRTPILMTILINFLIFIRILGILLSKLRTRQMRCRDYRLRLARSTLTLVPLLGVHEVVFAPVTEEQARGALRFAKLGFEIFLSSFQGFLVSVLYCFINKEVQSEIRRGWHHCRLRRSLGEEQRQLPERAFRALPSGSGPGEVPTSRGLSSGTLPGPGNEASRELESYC
# hGIPR [3] = molecular target: T2, hGIPR; test: Functional cAMP activity in the presence of 1% HSA; settings: read-out: cAMP Rel EC50, hGIPR
# hGcgR = hGcgR (Homo sapiens, UniProt P47871); test: Functional cAMP activation in the presence of 0.1% casein (no HSA); settings: geometric mean, read-out: Relative cAMP EC50, hGcgR;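 further: intracellular cAMP rise after 30 min at 37 °C, read by HTRF against a cAMP standard curve, scaled from buffer only (0%) to maximal control ligand response (100%)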
# Chain of hGcgR (P47871 26-477): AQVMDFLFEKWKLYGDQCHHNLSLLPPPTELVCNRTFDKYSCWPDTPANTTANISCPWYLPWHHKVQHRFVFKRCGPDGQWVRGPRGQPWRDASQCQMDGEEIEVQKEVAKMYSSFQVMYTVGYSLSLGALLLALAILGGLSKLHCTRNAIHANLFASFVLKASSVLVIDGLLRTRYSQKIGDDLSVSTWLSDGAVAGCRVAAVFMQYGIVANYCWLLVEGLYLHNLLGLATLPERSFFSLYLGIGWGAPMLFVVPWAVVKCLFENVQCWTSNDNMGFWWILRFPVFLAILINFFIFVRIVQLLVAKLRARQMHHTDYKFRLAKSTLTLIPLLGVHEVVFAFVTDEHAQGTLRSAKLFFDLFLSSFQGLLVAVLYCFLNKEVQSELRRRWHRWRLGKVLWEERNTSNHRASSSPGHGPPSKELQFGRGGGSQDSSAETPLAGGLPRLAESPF
# human GcgR = human GcgR (Homo sapiens, UniProt P47871); test: Functional cAMP activity in the presence of 1% HSA; settings: read-out: cAMP Rel EC50, hGcgR
# Chain of human GcgR (P47871 26-477): as above
# hGLP-1R [4] = molecular target: T1, hGLP-1R; test: Functional cAMP activity in the presence of 1% HSA; settings: read-out: cAMP Rel EC50, hGLP-1R
# [5] = in the presence of 0.1% casein (no HSA)
Structure (SMILES),EC50 (hGLP-1R [1]; [5]),EC50 (hGIPR [2]; [5]),EC50 (hGIPR [3]),EC50 (hGcgR; [5]),EC50 (human GcgR),EC50 (hGLP-1R [4]),"EC50 (hGLP-1R [1]; 0.1% casein, no HSA)","EC50 (hGIPR [2]; 0.1% casein, no HSA)","EC50 (hGcgR; 0.1% casein, no HSA)"
CC[C@H](C)[C@H](NC(=O)[C@H](Cc1ccccc1)NC(=O)[C@H](C)NC(=O)[C@](C)(Cc1ccncc1)NC(=O)[C@H](CCC(N)=O)NC(=O)[C@H](C)NC(=O)[C@H](CCCCNC(=O)CC[C@H](NC(=O)CC[C@H](NC(=O)CCCCCCCCCCCCCCCCC(=O)O)C(=O)O)C(=O)O)NC(=O)[C@H](CCCN)NC(=O)[C@H](CC(=O)O)NC(=O)[C@H](CC(C)C)NC(=O)[C@](C)(CC(C)C)NC(=O)[C@H](CCC(N)=O)NC(=O)[C@H](CO)NC(=O)[C@H](Cc1ccncc1)NC(=O)[C@H](CC(=O)O)NC(=O)[C@H](CO)NC(=O)[C@@H](NC(=O)[C@H](Cc1ccccc1)NC(=O)[C@@H](NC(=O)CNC(=O)[C@H](CCC(N)=O)NC(=O)C(C)(C)NC(=O)[C@@H](N)Cc1ccc(O)cc1)[C@@H](C)O)[C@@H](C)O)C(=O)N[C@@H](CCC(=O)O)C(=O)N[C@@H](Cc1ccc(O)cc1)C(=O)N[C@@H](CC(C)C)C(=O)N[C@H](C(=O)N[C@@H](CCC(=O)O)C(=O)N[C@H](C)C(=O)NCC(=O)N1CCC[C@H]1C(=O)N[C@@H](CO)C(=O)N[C@@H](CO)C(=O)NCC(=O)N[C@@H](C)C(=O)N1CCC[C@H]1C(=O)N1CCC[C@H]1C(=O)N1CCC[C@H]1C(=O)N[C@@H](CO)C(=O)NCC(=O)N[C@@H](CO)C(=O)N[C@@H](CCC(=O)O)C(N)=O)[C@@H](C)CC [Example 1023],1.47 nM,0.235 nM,26 nM,3.82 nM,856 nM,230 nM,–,–,–
CC[C@H](C)[C@H](NC(=O)[C@H](Cc1ccccc1)NC(=O)[C@H](C)NC(=O)[C@](C)(Cc1ccncc1)NC(=O)[C@H](CCC(N)=O)NC(=O)[C@H](C)NC(=O)[C@H](CCCCNC(=O)COCCOCCNC(=O)CC[C@H](NC(=O)CC[C@H](NC(=O)CCCCCCCCCCCCCCCCC(=O)O)C(=O)O)C(=O)O)NC(=O)[C@H](CCCCN)NC(=O)[C@H](CC(=O)O)NC(=O)[C@H](CC(C)C)NC(=O)[C@](C)(CC(C)C)NC(=O)[C@H](CCC(N)=O)NC(=O)[C@H](CO)NC(=O)[C@H](Cc1ccncc1)NC(=O)[C@H](CC(=O)O)NC(=O)[C@H](CO)NC(=O)[C@@H](NC(=O)[C@H](Cc1ccccc1)NC(=O)[C@@H](NC(=O)CNC(=O)[C@H](CCC(N)=O)NC(=O)C(C)(C)NC(=O)[C@@H](N)Cc1ccc(O)cc1)[C@@H](C)O)[C@@H](C)O)C(=O)N[C@@H](CCC(=O)O)C(=O)N[C@@H](Cc1ccc(O)cc1)C(=O)N[C@@H](CC(C)C)C(=O)N[C@H](C(=O)N[C@@H](CCC(=O)O)C(=O)N[C@H](C)C(=O)NCC(=O)N1CCC[C@H]1C(=O)N[C@@H](CO)C(=O)N[C@@H](CO)C(=O)NCC(=O)N[C@@H](C)C(=O)N1CCC[C@H]1C(=O)N1CCC[C@H]1C(=O)N1CCC[C@H]1C(=O)N[C@@H](CO)C(=O)NCC(=O)N[C@@H](CO)C(=O)N[C@@H](CCC(=O)O)C(N)=O)[C@@H](C)CC [Example 1024],4.79 nM,0.441 nM,32.5 nM,10.6 nM,760 nM,330 nM,–,–,–
CC[C@H](C)[C@H](NC(=O)[C@H](Cc1ccccc1)NC(=O)[C@H](C)NC(=O)[C@](C)(Cc1ccncc1)NC(=O)[C@H](CCC(N)=O)NC(=O)[C@H](C)NC(=O)[C@H](CCCCNC(=O)CC[C@H](NC(=O)CC[C@H](NC(=O)CCCCCCCCCCCCCCCCC(=O)O)C(=O)O)C(=O)O)NC(=O)[C@H](CCCCN)NC(=O)[C@H](CC(=O)O)NC(=O)[C@H](CC(C)C)NC(=O)[C@](C)(CC(C)C)NC(=O)[C@H](CCC(N)=O)NC(=O)[C@H](CO)NC(=O)[C@H](Cc1ccncc1)NC(=O)[C@H](CC(=O)O)NC(=O)[C@H](CO)NC(=O)[C@@H](NC(=O)[C@H](Cc1ccccc1)NC(=O)[C@@H](NC(=O)CNC(=O)[C@H](CCC(N)=O)NC(=O)C(C)(C)NC(=O)[C@@H](N)Cc1ccc(O)cc1)[C@@H](C)O)[C@@H](C)O)C(=O)N[C@@H](CCC(=O)O)C(=O)N[C@@H](Cc1ccc(O)cc1)C(=O)N[C@@H](CC(C)C)C(=O)N[C@H](C(=O)N[C@@H](CCC(=O)O)C(=O)N[C@H](C)C(=O)NCC(=O)N1CCC[C@H]1C(=O)N[C@@H](CO)C(=O)N[C@@H](CO)C(=O)NCC(=O)N[C@@H](C)C(=O)N1CCC[C@H]1C(=O)N1CCC[C@H]1C(=O)N1CCC[C@H]1C(=O)N[C@@H](CO)C(=O)NCC(=O)N[C@@H](CO)C(=O)N[C@@H](CCC(=O)O)C(N)=O)[C@@H](C)CC [Example 1025],2.45 nM,0.18 nM,31.5 nM,3.22 nM,625 nM,352 nM,–,–,–
CC[C@H](C)[C@H](NC(=O)[C@H](CC(C)C)NC(=O)[C@](C)(Cc1ccc(O)cc1)NC(=O)[C@H](CCC(=O)O)NC(=O)[C@@H](NC(=O)[C@H](Cc1ccccc1)NC(=O)[C@H](CCC(N)=O)NC(=O)[C@](C)(Cc1ccncc1)NC(=O)[C@H](CCC(N)=O)NC(=O)[C@H](C)NC(=O)[C@H](CCCCNC(=O)COCCOCCNC(=O)CC[C@H](NC(=O)CCCCCCCCCCCCCCCCC(=O)O)C(=O)O)NC(=O)[C@H](CCCN)NC(=O)[C@H](CC(=O)O)NC(=O)[C@H](CC(C)C)NC(=O)[C@](C)(CC(C)C)NC(=O)[C@H](CCC(N)=O)NC(=O)[C@H](CO)NC(=O)[C@H](Cc1ccncc1)NC(=O)[C@H](CC(=O)O)NC(=O)[C@H](CO)NC(=O)[C@@H](NC(=O)[C@H](Cc1ccccc1)NC(=O)[C@@H](NC(=O)CNC(=O)[C@H](CCC(N)=O)NC(=O)C(C)(C)NC(=O)[C@@H](N)Cc1ccc(O)cc1)[C@@H](C)O)[C@@H](C)O)[C@@H](C)CC)C(=O)N[C@@H](CCC(=O)O)C(=O)NC(C)(C)C(=O)NCC(=O)N1CCC[C@H]1C(=O)N[C@@H](CO)C(=O)N[C@@H](CO)C(=O)NCC(=O)N[C@@H](C)C(=O)N1CCC[C@H]1C(=O)N1CCC[C@H]1C(=O)N1CCC[C@H]1C(=O)N[C@@H](CO)C(=O)NCC(=O)N[C@@H](CO)C(=O)N[C@@H](CCC(=O)O)C(=O)N[C@@H](CCC(=O)O)C(N)=O [Example 1109],2.3 nM,0.0626 nM,20.2 nM,10.8 nM,510 nM,102 nM,–,–,–
CC[C@H](C)[C@H](NC(=O)[C@H](CC(C)C)NC(=O)[C@](C)(Cc1ccc(O)cc1)NC(=O)[C@H](CCC(=O)O)NC(=O)[C@@H](NC(=O)[C@H](Cc1ccccc1)NC(=O)[C@H](CCC(N)=O)NC(=O)[C@](C)(Cc1ccncc1)NC(=O)[C@H](CCC(N)=O)NC(=O)[C@H](C)NC(=O)[C@H](CCCCNC(=O)COCCOCCNC(=O)CC[C@H](NC(=O)CCCCCCCCCCCCCCCCC(=O)O)C(=O)O)NC(=O)[C@H](CCCN)NC(=O)[C@H](CC(=O)O)NC(=O)[C@H](CC(C)C)NC(=O)[C@](C)(CC(C)C)NC(=O)[C@H](CCC(N)=O)NC(=O)[C@H](CO)NC(=O)[C@H](Cc1ccncc1)NC(=O)[C@H](CC(=O)O)NC(=O)[C@H](CO)NC(=O)[C@@H](NC(=O)[C@H](Cc1ccccc1)NC(=O)[C@@H](NC(=O)CNC(=O)[C@H](CCC(N)=O)NC(=O)C(C)(C)NC(=O)[C@@H](N)Cc1ccc(O)cc1)[C@@H](C)O)[C@@H](C)O)[C@@H](C)CC)C(=O)N[C@@H](C)C(=O)NC(C)(C)C(=O)NCC(=O)N1CCC[C@H]1C(=O)N[C@@H](CO)C(=O)N[C@@H](CO)C(=O)NCC(=O)N[C@@H](C)C(=O)N1CCC[C@H]1C(=O)N1CCC[C@H]1C(=O)N1CCC[C@H]1C(=O)N[C@@H](CO)C(=O)NCC(=O)N[C@@H](CO)C(=O)N[C@@H](CCC(=O)O)C(=O)N[C@@H](CCC(=O)O)C(N)=O [Example 1111],1.14 nM,0.0356 nM,3.66 nM,5.28 nM,299 nM,51.3 nM,–,–,–
CC[C@H](C)[C@H](NC(=O)[C@H](CC(C)C)NC(=O)[C@](C)(Cc1ccc(O)cc1)NC(=O)[C@@H](CCC(=O)O)NC(=O)[C@@H](NC(=O)[C@H](Cc1ccccc1)NC(=O)[C@H](CCC(=O)O)NC(=O)[C@](C)(Cc1ccncc1)NC(=O)[C@H](CCC(N)=O)NC(=O)[C@H](C)NC(=O)[C@H](CCCCNC(=O)COCCOCCNC(=O)COCCOCCNC(=O)CC[C@H](NC(=O)CCCCCCCCCCCCCCCCC(=O)O)C(=O)O)NC(=O)[C@H](CCCN)NC(=O)[C@H](CC(=O)O)NC(=O)[C@H](CC(C)C)NC(=O)[C@](C)(CC(C)C)NC(=O)[C@@H](NC(=O)[C@](C)(CO)NC(=O)[C@H](Cc1ccncc1)NC(=O)[C@H](CC(=O)O)NC(=O)[C@H](CO)NC(=O)[C@@H](NC(=O)[C@](C)(Cc1ccccc1F)NC(=O)[C@@H](NC(=O)CNC(=O)[C@H](CCC(N)=O)NC(=O)C(C)(C)NC(=O)[C@@H](N)Cc1ccc(O)cc1)[C@@H](C)O)[C@@H](C)O)[C@@H](C)CC)[C@@H](C)CC)C(=O)N[C@@H](CCC(=O)O)C(=O)NCC(=O)NCC(=O)N1CCC[C@H]1C(=O)N[C@@H](CO)C(=O)N[C@@H](CO)C(=O)NCC(=O)N[C@@H](C)C(=O)N1CCC[C@H]1C(=O)N1CCC[C@H]1C(=O)N1CCC[C@H]1C(=O)N[C@@H](CO)C(=O)NCC(=O)N[C@@H](CO)C(N)=O [Example 1207],–,–,0.633 nM,–,470 nM,39.8 nM,0.299 nM,0.00647 nM,7.71 nM
